# In article PMC3390464 (Phytochemistry, 2012):
# Biological target: Sigma 1 receptor
# Assay: competitive radioligand binding assay
substance,measurement,value
"9,13-epoxy-6-hydroxylabdan-15,16-olide [compound 11]",Ki,2900 nM
